# Experimental data reported in patent publication US20050208000A1, “Compositions and methods for prevention of photoaging” (priority 1999, published 2005).
# Tested on: human elastin promoter
# Experiment: Transgenic mouse model of photoaging: human elastin promoter/CAT reporter activity in skin after solar simulating radiation
# Format: in vivo, mice
# Source text: A transgenic mouse model which contains the human elastin promoter linked to a chloramphenicol acetyltransferase (CAT) reporter gene for testing compounds that may inhibit cutaneous photodamage has been developed. These mice express human elastin promoter activity in a tissue-specific and developmentally regulated manner. […] In addition, quantitative data can be obtained after only a single exposure to ultraviolet radiation. A test compound is applied to the skin of a transgenic mouse capable of expressing the human elastin promoter. The transgenic mouse is then exposed to solar radiation and human elastin promoter activity in the mouse is determined. The human elastin promoter activity is then compared to that in transgenic mice also exposed to an equivalent dose of solar radiation which were not treated with the test compound to determine whether or not the test compound provided protection against the solar radiation. […]
# Using this transgenic mouse line, the ability of alpha 1-antitrypsin to inhibit the effects of solar radiation on human elastin promoter activity was determined. […]
# To measure the expression of the human elastin promoter/CAT reporter gene construct in the skin of transgenic, mice and in fibroblast cultures established from these animals, CAT activity was determined. […]
substance,measurement,setting,value
alpha 1-antitrypsin,reduction in CAT activity,"topical 20 mg/ml alpha 1-antitrypsin in goat's milk versus goat's milk alone, 20 MEDs SSR on three consecutive days",69%
same,Relative increase in CAT activity (mean+S.D.),"transgenic mice, topical application to the back about 15 min before 20 MEDs SSR, three consecutive days, skin harvested 24 hours after third phototreatment, baseline of unirradiated untreated control mice standardized to one",4.5+1.0
